Results: patent US20250066341A1 (CHIESI FARMACEUTICI S.P.A., priority 2021, published 2025)
pIC50: −log10 of the molar value.

What follows are molecules tested against T1, human recombinant LPA1 expressed in CHO cells (Homo sapiens, UniProt Q92633) (assay: FLIPR calcium mobilization assay, LPA1 antagonism in CHO-hLPA1 cells). Conditions: inhibition of LPA EC80 Ca2+ response, 30 min pre-incubation, expressed as range of activity.
T1 construct: expressed in transfected cells; host or cells: CHO cells (CHO-hLPA1 cell line)
T1 sequence (Q92633 whole entry): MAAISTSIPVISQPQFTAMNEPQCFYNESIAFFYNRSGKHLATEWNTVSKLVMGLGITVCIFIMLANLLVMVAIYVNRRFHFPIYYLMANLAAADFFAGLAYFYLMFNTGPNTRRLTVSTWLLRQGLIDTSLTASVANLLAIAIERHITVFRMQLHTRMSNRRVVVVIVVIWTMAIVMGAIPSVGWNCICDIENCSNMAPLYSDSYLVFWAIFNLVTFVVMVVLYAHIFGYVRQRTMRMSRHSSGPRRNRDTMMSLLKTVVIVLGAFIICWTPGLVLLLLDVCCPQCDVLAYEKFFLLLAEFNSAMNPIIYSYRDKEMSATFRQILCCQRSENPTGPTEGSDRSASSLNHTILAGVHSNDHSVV
Format: cell-based
Protocol: The effectiveness of compounds of the present invention as LPA1 antagonist can be determined at the human recombinant LPA1 expressed in CHO cells, using a FLIPR assay in 384 well format.
CHO-hLPA1 cell lines are cultured in a humidified incubator at 5% C02 in DMEM/F-12 (1:1) MIXTURE with 2 mM Glutamax, supplemented with 10% of Foetal Bovine Serum, 1 mM Sodium Pyruvate, 11 mM Hepes and 1× Penicillin/Streptomycin. […] Serial dilutions (1:3 or 1:4, 11 points CRC) of compounds are performed in 100% DMSO at 200× the final concentration. […] The final concentration of DMSO in the assay will be 0.5% in each well. Medium is removed by aspiration and cells are then incubated with 30 μl of a loading solution containing 5 μM of the cytoplasmic Ca2+ indicator Cal-520 AM in Assay Buffer containing 2.5 mM probenecid for 30 min at 37° C. incubator (cell loading). The loaded cell plates are transferred into the FLIPR instrument and calcium responses are monitored during the on-line addition protocols. For testing of compounds, after the cell loading, 10 μl/well of 4× antagonists' solution was added onto the cells. After 30 min pre-incubation (at 37° C.), 10 μl/well of 5× concentrated LPA EC80 was added and Ca2+ mobilization responses was followed during the on-line addition protocol. Intracellular peak fluorescence values subtracted by baseline fluorescence are exported and analysed to determine IC50 values, respectively. The calcium response is expressed as percentage of the maximal inhibition of the EC80 agonist response.
The raw data (peak height expressed as relative fluorescence units) are normalized and transformed into “percent of inhibition”. Curve fitting and pIC50 (−LogIC50) estimations are carried out using a four-parameter logistic model using XLfit Software.

First: Cc1nc(-c2onc(C)c2NS(=O)(=O)CCc2ccccc2Cl)ccc1NC(=O)[C@H]1CCCC[C@@H]1C(=O)O [Compound 22, (1S,2S)-2-((6-(4-((2-(2-chlorophenyl)ethyl)sulfonamido)-3-methylisoxazol-5-yl)-2-methylpyridin-3-yl)carbamoyl)cyclohexane-1-carboxylic acid]
Second: Cc1nc(-c2onc(C)c2NS(=O)(=O)CCc2ccccc2F)ccc1NC(=O)[C@H]1CCCC[C@@H]1C(=O)O [Compound 24, (1S,2S)-2-((6-(4-((2-(2-fluorophenyl)ethyl)sulfonamido)-3-methylisoxazol-5-yl)-2-methylpyridin-3-yl)carbamoyl)cyclohexane-1-carboxylic acid]
The pIC50 of the first is higher: greater than 7.30 for the first, 6.60 to 7.30 for the second. The first is the more potent here.

First: Cc1nc(-c2onc(C)c2NS(=O)(=O)CCc2ccccc2)ccc1NC(=O)[C@H]1CCCC[C@@H]1C(=O)O [Compound 23, (1S,2S)-2-((2-methyl-6-(3-methyl-4-((2-phenylethyl)sulfonamido)isoxazol-5-yl)pyridin-3-yl)carbamoyl)cyclohexane-1-carboxylic acid]
Second: Cc1nc(-c2onc(C)c2NS(=O)(=O)CCCc2ccccc2)ccc1NC(=O)[C@H]1CCCC[C@@H]1C(=O)O [Compound 26, (1S,2S)-2-((2-methyl-6-(3-methyl-4-((3-phenylpropyl)sulfonamido)isoxazol-5-yl)pyridin-3-yl)carbamoyl)cyclohexane-1-carboxylic acid]
The pIC50 of the first is lower: 6.60 to 7.30 for the first, greater than 7.30 for the second.

`Cc1nc(-c2onc(C)c2NS(=O)(=O)CCOc2ccc(F)cc2)ccc1NC(=O)[C@H]1CCCC[C@@H]1C(=O)O` [Compound 25, (1S,2S)-2-((6-(4-((2-(4-fluorophenoxy)ethyl)sulfonamido)-3-methylisoxazol-5-yl)-2-methylpyridin-3-yl)carbamoyl)cyclohexane-1-carboxylic acid] and `Cc1nc(-c2onc(C)c2NS(=O)(=O)CCc2ccc(F)cc2)ccc1NC(=O)[C@H]1CCCC[C@@H]1C(=O)O` [Compound 27] fall in the same range of pIC50: 6.60 to 7.30 for the first, 6.60 to 7.30 for the second.

Compared with `Cc1nc(-c2onc(C)c2NS(=O)(=O)CCc2ccc(Cl)cc2)ccc1NC(=O)[C@H]1CCCC[C@@H]1C(=O)O` [Compound 28, (1S,2S)-2-((6-(4-((2-(4-chlorophenyl)ethyl)sulfonamido)-3-methylisoxazol-5-yl)-2-methylpyridin-3-yl)carbamoyl)cyclohexane-1-carboxylic acid], `Cc1nc(-c2onc(C)c2CNC(=O)OCc2ccccc2)ccc1NC(=O)[C@H]1CCCC[C@@H]1C(=O)O` [Compound 32, (1S,2S)-2-((6-(4-((((benzyloxy)carbonyl)amino)methyl)-3-methylisoxazol-5-yl)-2-methylpyridin-3-yl)carbamoyl)cyclohexane-1-carboxylic acid] is lower in pIC50: greater than 7.30 for the first, 6.60 to 7.30 for the second.

`Cc1nc(-c2onc(C)c2CNC(=O)O[C@H](C)c2ccccc2)ccc1NC(=O)[C@H]1CCCC[C@@H]1C(=O)O` [Compound 35, (1S,2S)-2-((2-methyl-6-(3-methyl-4-(((((R)-1-phenylethoxy)carbonyl)amino)methyl)isoxazol-5-yl)pyridin-3-yl)carbamoyl)cyclohexane-1-carboxylic acid] and `Cc1nc(-c2nnn(C)c2CNC(=O)O[C@H](C)c2ccccc2Cl)ccc1NC(=O)[C@H]1CCCC[C@@H]1C(=O)O` [Compound 42, (1S,2S)-2-((6-(5-(((((R)-1-(2-chlorophenyl)ethoxy)carbonyl)amino)methyl)-1-methyl-1H-1,2,3-triazol-4-yl)-2-methylpyridin-3-yl)carbamoyl)cyclohexane-1-carboxylic acid] fall in the same range of pIC50: 6.22 to 6.60 for the first, 6.22 to 6.60 for the second.

First: CCOc1ccnc(NCc2c(C)noc2-c2ccc(NC(=O)[C@H]3CCCC[C@@H]3C(=O)O)c(C)n2)n1 [Compound 36, (1S,2S)-2-((6-(4-(((4-ethoxypyrimidin-2-yl)amino)methyl)-3-methylisoxazol-5-yl)-2-methylpyridin-3-yl)carbamoyl)cyclohexane-1-carboxylic acid]
Second: Cc1nc(-c2onc(C)c2CNc2nccc(-c3cccs3)n2)ccc1NC(=O)[C@H]1CCCC[C@@H]1C(=O)O [Compound 37, (1S,2S)-2-((2-methyl-6-(3-methyl-4-(((4-(thiophen-2-yl)pyrimidin-2-yl)amino)methyl)isoxazol-5-yl)pyridin-3-yl)carbamoyl)cyclohexane-1-carboxylic acid]
The pIC50 of the first is lower: 6.60 to 7.30 for the first, greater than 7.30 for the second. The second is the more potent here.

`Cc1nc(-c2onc(C)c2CNc2nccc(-c3cccnc3)n2)ccc1NC(=O)[C@H]1CCCC[C@@H]1C(=O)O` [Compound 38, (1S,2S)-2-((2-methyl-6-(3-methyl-4-(((4-(pyridin-3-yl)pyrimidin-2-yl)amino)methyl)isoxazol-5-yl)pyridin-3-yl)carbamoyl)cyclohexane-1-carboxylic acid] and `Cc1nc(-c2onc(C)c2CNc2nccc(-c3ccsc3)n2)ccc1NC(=O)[C@H]1CCCC[C@@H]1C(=O)O` [Compound 39, (1S,2S)-2-((2-methyl-6-(3-methyl-4-(((4-(thiophen-3-yl)pyrimidin-2-yl)amino)methyl)isoxazol-5-yl)pyridin-3-yl)carbamoyl)cyclohexane-1-carboxylic acid] cannot be ordered by pIC50: greater than 7.30 for the first, greater than 7.30 for the second.

`Cc1nc(-c2onc(C)c2CNc2nccc(-c3cccc4ccccc34)n2)ccc1NC(=O)[C@H]1CCCC[C@@H]1C(=O)O` [Compound 40, (1S,2S)-2-((2-methyl-6-(3-methyl-4-(((4-(naphthalen-1-yl)pyrimidin-2-yl)amino)methyl)isoxazol-5-yl)pyridin-3-yl)carbamoyl)cyclohexane-1-carboxylic acid] and `Cc1nc(-c2onc(C)c2CNc2nccc(-c3ccco3)n2)ccc1NC(=O)[C@H]1CCCC[C@@H]1C(=O)O` [Compound 41, (1S,2S)-2-((6-(4-(((4-(furan-2-yl)pyrimidin-2-yl)amino)methyl)-3-methylisoxazol-5-yl)-2-methylpyridin-3-yl)carbamoyl)cyclohexane-1-carboxylic acid] cannot be ordered by pIC50: greater than 7.30 for the first, greater than 7.30 for the second.

Compared with `Cc1nc(-c2nnn(C)c2CNc2nccc(C3CCCCC3)n2)ccc1NC(=O)[C@H]1CCCC[C@@H]1C(=O)O` [Compound 44, (1S,2S)-2-((6-(5-(((4-cyclohexylpyrimidin-2-yl)amino)methyl)-1-methyl-1H-1,2,3-triazol-4-yl)-2-methylpyridin-3-yl)carbamoyl)cyclohexane-1-carboxylic acid], `Cc1nc(-c2onc(C)c2COC(=O)N(C)C2CCCC2)ccc1NC(=O)[C@H]1CCCC[C@@H]1C(=O)O` [Compound 45, (1S,2S)-2-((6-(4-(((cyclopentyl(methyl)carbamoyl)oxy)methyl)-3-methylisoxazol-5-yl)-2-methylpyridin-3-yl)carbamoyl)cyclohexane-1-carboxylic acid] is lower in pIC50: greater than 7.30 for the first, 6.60 to 7.30 for the second.

`Cc1nc(-c2onc(C)c2Nc2cncc(C3CCCC3)n2)ccc1OC[C@H]1CCCC[C@@H]1C(=O)O` [Compound 46, (1S,2S)-2-(((6-(4-((6-cyclopentylpyrazin-2-yl)amino)-3-methylisoxazol-5-yl)-2-methylpyridin-3-yl)oxy)methyl)cyclohexane-1-carboxylic acid] and `CCOc1cncc(Nc2c(C)noc2-c2ccc(OC[C@H]3CCCC[C@@H]3C(=O)O)c(C)n2)n1` [Compound 51, (1S,2S)-2-(((6-(4-((6-ethoxypyrazin-2-yl)amino)-3-methylisoxazol-5-yl)-2-methylpyridin-3-yl)oxy)methyl)cyclohexane-1-carboxylic acid] cannot be ordered by pIC50: greater than 7.30 for the first, greater than 7.30 for the second.

`CCOc1cncc(Nc2c(C)noc2-c2ccc(OC[C@H]3CCCC[C@@H]3C(=O)O)cn2)n1` [Compound 47, (1S,2S)-2-(((6-(4-((6-ethoxypyrazin-2-yl)amino)-3-methylisoxazol-5-yl)pyridin-3-yl)oxy)methyl)cyclohexane-1-carboxylic acid] and `Cc1noc(-c2ccc(OC[C@H]3CCCC[C@@H]3C(=O)O)cn2)c1Nc1cncc(OCC(C)C)n1` [Compound 50, (1S,2S)-2-(((6-(4-((6-isobutoxypyrazin-2-yl)amino)-3-methylisoxazol-5-yl)pyridin-3-yl)oxy)methyl)cyclohexane-1-carboxylic acid] cannot be ordered by pIC50: greater than 7.30 for the first, greater than 7.30 for the second.

`Cc1noc(-c2ccc(OC[C@H]3CCCC[C@@H]3C(=O)O)cn2)c1Nc1cncc(OC(C)C)n1` [Compound 48, (1S,2S)-2-(((6-(4-((6-isopropoxypyrazin-2-yl)amino)-3-methylisoxazol-5-yl)pyridin-3-yl)oxy)methyl)cyclohexane-1-carboxylic acid] and `Cc1nc(-c2onc(C)c2Nc2cncc(OC(C)C)n2)ccc1OC[C@H]1CCCC[C@@H]1C(=O)O` [Compound 52, (1S,2S)-2-(((6-(4-((6-isopropoxypyrazin-2-yl)amino)-3-methylisoxazol-5-yl)-2-methylpyridin-3-yl)oxy)methyl)cyclohexane-1-carboxylic acid] cannot be ordered by pIC50: greater than 7.30 for the first, greater than 7.30 for the second.

`Cc1noc(-c2ccc(OC[C@H]3CCCC[C@@H]3C(=O)O)cn2)c1Nc1cncc(OCC(F)(F)F)n1` [Compound 49, (1S,2S)-2-(((6-(3-methyl-4-((6-(2,2,2-trifluoroethoxy)pyrazin-2-yl)amino)isoxazol-5-yl)pyridin-3-yl)oxy)methyl)cyclohexane-1-carboxylic acid] gave a pIC50 greater than 7.30.
